Reference: patent US10597414B2, “Crystalline polymorphic form of 3-hydroxy-4,5-bis-benzyloxy-6-benzyloxymethyl-2-phenyl-2-OXO-2λ5-[1,2]oxaphosphinane” (PHOST'IN, priority 2016, dated 2020)

Assays:
[1] = Stability of polymorphic forms (maturation at room temperature, cross-seeding tests); type: physicochemical; conditions: 25° C., several days of maturation
Experimental: Other polymorphic forms could be obtained by recrystallizing out from specific organic solvents starting from the crystalline form of the invention. However, said other polymorphic forms are not stable after several days of maturation at room temperature (more specifically at 25° C.).

[2] = Compression test followed by X-ray diffraction; type: physicochemical; conditions: pressure of 10 tons for 5 min, 13 mm die
Experimental: Compression Test The sample was introduced into a die with 13 mm diameter (m=103.83 mg). The sample was then compressed with a hydraulic press at a pressure of 10 tons for 5 minutes, and immediately analyzed by X-ray diffraction.

[3] = Thermogravimetric analysis (TGA); type: physicochemical; conditions: about 25° C. to 250° C., before and after melting
Experimental: The analyses were performed on a Perkin Elmer Pyris 1 TGA. The samples (few milligrams of product obtained by carrying out the above scheme 5) were placed in an aluminum pan and the cover was crimped. Analyses were performed under nitrogen purge (20 mL/min) and the cover was punctured at the beginning of the analysis.
Temperature scans were carried out between 25° C. and 300° C. at a speed of 10°/min (unless stated otherwise).

[4] = Dynamic vapor sorption (DVS) analysis; type: physicochemical
Experimental: Dynamic Vapor Sorption (DVS)
The analyses were performed on a Surface Measurements System DVS Intrinsic. The samples (few milligrams of product obtained by carrying out the above scheme 5) were placed in an open aluminum pan. Analyses were performed at 25° C.
Relative humidity was scanned between 0% RH and 95% RH with 10% RH steps (40-0-95-0-95; unless stated otherwise). The stability criterion was a variation in mass lower than 0.002% on a 5 min. window (with a minimum step time of 10 min and a maximum of 100 min).

glioblastoma = conditions: prior art, J. Med. Chem. 2012, 55, 2196-2211; cited from earlier work

| Structure (SMILES) | Relative stability of polymorphic form [1] | Solid state stability after compression (diffraction pattern vs starting material) [2] | Weight loss by TGA [3] | Hygroscopicity ([4]; DVS, 0% RH to 95% RH, 25° C.) | DVS weight loss ([4]; drying steps, 25° C., relative humidity 0% RH to 95% RH) | XRPD pattern after DVS analysis compared with before ([4]; sample kept at 95% RH on the final step) | DVS weight gain with respect to the initial weight ([4]; steps at higher relative humidity conditions, 25° C.) | Relative potency among the four diastereoisomers (glioblastoma) |
| --- | --- | --- | --- | --- | --- | --- | --- | --- |
| O=P1(c2ccccc2)OC(COCc2ccccc2)C(OCc2ccccc2)C(OCc2ccccc2)C1O (centres unmarked) [crystalline form of compound I, 3-Hydroxy-4,5-bis-benzyloxy-6-benzyloxymethyl-2-phenyl-2-oxo-2λ5-[1,2]oxaphosphinane] | most stable form | same peaks | no significant weight loss | non-hygroscopic | lower than 0.1% | same profile | 0.1% |  |
| O=[P@@]1(c2ccccc2)O[C@H](COCc2ccccc2)[C@@H](OCc2ccccc2)[C@H](OCc2ccccc2)[C@H]1O [PST3.1a] |  |  |  |  |  |  |  | most potent diastereoisomer |
